Assay results from patent US20090068290A1, “BIFEPRUNOX DOSES FOR TREATING SCHIZOPHRENIA” (priority 2006, published 2009).

Key:
[1] = system: adult subjects with schizophrenia; assay: BPRS psychosis cluster score, Clinical Study Three; format: in vivo, human; conditions: LOCF; for Change from Baseline in BPRS Psychosis Cluster Score, Mean (SD) / Change from Baseline in BPRS Psychosis Cluster Score, Median: Olanzapine 15 mg, ITT population
From the text: SECONDARY OBJECTIVES To assess the efficacy of bifeprunox in treating schizophrenia using the Positive Symptom sub-scale score of the PANSS, the Negative Symptom sub-scale score of the PANSS, the General Psychopathology sub-scale of the PANSS, Brief Psychiatric Rating Scale (BPRS) total score derived from the PANSS, BPRS psychosis score derived from the PANSS, the Clinical Global Impression Severity of Illness score (CGI-S), the Clinical Global Impression Improvement score (CGI-I), CGI-I responder rate, PANSS responder rate based on the PANSS total score, Calgary Depression Scale for Schizophrenia (CDSS), and Subject Satisfaction rating.
There were four treatment arms in this study, approximately 144 subjects per arm. […] After completing the Single-Blind Placebo Lead-in Period of at least three days, bifeprunox-treated subjects were titrated from 0.25 mg up to 20 mg/day or 30 mg/day according to a standardized titration scheme over a seven- or eight-day period, respectively. When the assigned dose was reached, subjects were maintained at that dose for the remainder of the six week treatment period. […] Subjects were hospitalized (if not already inpatients) after eligibility for study entry was verified, starting from the Screening Visit until at least 10 days after Baseline. Subjects could be hospitalized longer than 10 days if considered medically necessary by the Investigator. Rating scale assessments for efficacy and abnormal movement disorders were done weekly except for Week 5. […] Subject satisfaction with study medication was assessed at Week 6.

[2] = system: adult subjects with schizophrenia; assay: BPRS psychosis cluster score, Clinical Study Two; format: in vivo, human; conditions: LOCF; for Change from Baseline in BPRS Psychosis Cluster Score, Mean (SD) / Change from Baseline in BPRS Psychosis Cluster Score, Median: Risperidone 6 mg, ITT population
Procedure: (§1) Rating scale assessments were performed weekly, except for week 5, to measure the change from baseline to endpoint of the PANSS total score. Other assessments included: PANSS positive symptom subscale score, PANSS negative symptom subscale score, PANSS general pschopathology subscale score, BPRS total score, BPRS psychosis score, the CGI-S score, the CGI-I score, responder rates based on the PANSS total score, and the Calgary Depression Scale for Schizophrenia (CDSS). […]
(§2) Subjects who completed this study had the option to continue in the long-term. […] Risperidone-treated subjects were titrated from 2 mg to 6 mg daily over a three-day period and were subsequently maintained at 6 mg/day for the remainder of the treatment period. […] Blood samples were also obtained at Screening/Baseline, Week 3, and Week 6 for clinical laboratory assessments.

[3] = system: adult subjects with schizophrenia; assay: BPRS total score, Clinical Study Two; format: in vivo, human; conditions: LOCF; for Change from Baseline in BPRS Total Score, Mean (SD) / Change from Baseline in BPRS Total Score, Median: Risperidone 6 mg, ITT population
Procedure: as §1
Subjects who completed this study had the option to continue in the long-term. […] Blood samples were also obtained at Screening/Baseline, Week 3, and Week 6 for clinical laboratory assessments.

[4] = system: adult subjects with schizophrenia; assay: Adverse events (TEAE, SAE, special interest, discontinuation, EPS-related TEAE), Clinical Study Three; conditions: Risperidone 6 mg
Procedure: There were four treatment arms in this study, approximately 144 subjects per arm. […] After completing the Single-Blind Placebo Lead-in Period of at least three days, bifeprunox-treated subjects were titrated from 0.25 mg up to 20 mg/day or 30 mg/day according to a standardized titration scheme over a seven- or eight-day period, respectively. When the assigned dose was reached, subjects were maintained at that dose for the remainder of the six week treatment period. […] Subjects were hospitalized (if not already inpatients) after eligibility for study entry was verified, starting from the Screening Visit until at least 10 days after Baseline. Subjects could be hospitalized longer than 10 days if considered medically necessary by the Investigator. Rating scale assessments for efficacy and abnormal movement disorders were done weekly except for Week 5. Safety assessments were performed at Screening, during treatment and at the end of the study. Subject satisfaction with study medication was assessed at Week 6. Samples of whole blood were obtained at Weeks 2, 4, and 6 for determination of bifeprunox in plasma.
EPS were assessed using treatment-emergent adverse events such as akathisia, dyskinesia, parkinsoniam, etc. and/or formal rating scales such as SAS, BAS, and/or AIMS.

[5] = system: adult subjects with schizophrenia; assay: PANSS positive symptom subscale score, Clinical Study Two; format: in vivo, human; conditions: Risperidone 6 mg, LOCF, ITT
Procedure: as §1, §2

Cc1cc2c(s1)Nc1ccccc1N=C2N1CCN(C)CC1 [Olanzapine, olanzapine, reference compound]
Change from Baseline in BPRS Psychosis Cluster Score, Mean (SD) ([1]; Week 1): −1.9 (2.3) | Change from Baseline in BPRS Psychosis Cluster Score, Median ([1]; Week 1): −2 | Change from Baseline in BPRS Psychosis Cluster Score, Mean (SD) ([1]; Week 2): −3.1 (2.6) | Change from Baseline in BPRS Psychosis Cluster Score, Median ([1]; Week 2): −3 | Change from Baseline in BPRS Psychosis Cluster Score, Mean (SD) ([1]; Week 3): −4.0 (3.2) | Change from Baseline in BPRS Psychosis Cluster Score, Median ([1]; Week 3): −4 | Change from Baseline in BPRS Psychosis Cluster Score, Mean (SD) ([1]; Week 4): −4.4 (3.5) | Change from Baseline in BPRS Psychosis Cluster Score, Median ([1]; Week 4): −5 | Change from Baseline in BPRS Psychosis Cluster Score, Mean (SD) ([1]; Week 6/Endpoint): −4.9 (4.0) | Change from Baseline in BPRS Psychosis Cluster Score, Median ([1]; Week 6/Endpoint): −5 | mean change (SD) from Baseline to Endpoint in BPRS psychosis cluster score ([1]; olanzapine 15 mg, ITT): −4.9 (4.0)

Cc1nc2n(c(=O)c1CCN1CCC(c3noc4cc(F)ccc34)CC1)CCCC2 [Risperidone, risperidone, reference compound]
Change from Baseline in BPRS Psychosis Cluster Score, Mean (SD) ([2]; Week 1): −2.3 (2.4) | Change from Baseline in BPRS Psychosis Cluster Score, Median ([2]; Week 1): −2 | Change from Baseline in BPRS Psychosis Cluster Score, Mean (SD) ([2]; Week 2): −3.6 (3.0) | Change from Baseline in BPRS Psychosis Cluster Score, Median ([2]; Week 2): −4 | Change from Baseline in BPRS Psychosis Cluster Score, Mean (SD) ([2]; Week 3): −4.3 (3.4) | Change from Baseline in BPRS Psychosis Cluster Score, Median ([2]; Week 3): −4 | Change from Baseline in BPRS Psychosis Cluster Score, Mean (SD) ([2]; Week 4): −4.7 (3.6) | Change from Baseline in BPRS Psychosis Cluster Score, Median ([2]; Week 4): −5 | Change from Baseline in BPRS Psychosis Cluster Score, Mean (SD) ([2]; Week 6/Endpoint): −4.9 (4.0) | Change from Baseline in BPRS Psychosis Cluster Score, Median ([2]; Week 6/Endpoint): −5 | mean change (SD) from Baseline to Endpoint in BPRS psychosis cluster score ([2]; risperidone 6 mg, ITT): −4.9 (4.0) | Change from Baseline in BPRS Total Score, Mean (SD) ([3]; Week 1): −5.5 (6.3) | Change from Baseline in BPRS Total Score, Median ([3]; Week 1): −5 | Change from Baseline in BPRS Total Score, Mean (SD) ([3]; Week 2): −9.1 (8.5) | Change from Baseline in BPRS Total Score, Median ([3]; Week 2): −9 | Change from Baseline in BPRS Total Score, Mean (SD) ([3]; Week 3): −10.7 (9.4) | Change from Baseline in BPRS Total Score, Median ([3]; Week 3): −11 | Change from Baseline in BPRS Total Score, Median ([3]; Week 4): −13 | Change from Baseline in BPRS Total Score, Mean (SD) ([3]; Week 6/Endpoint): −12.2 (11.7) | Change from Baseline in BPRS Total Score, Median ([3]; Week 6/Endpoint): −13 | mean change (SD) from Baseline to Endpoint in BPRS total score ([3]; risperidone 6 mg, ITT): −12.2 (11.7) | AKATHISIA, % [4]: 3% | BALANCE DISORDER, % [4]: 1 (<1%) | DIZZINESS, % [4]: 5% | DYSARTHRIA, % [4]: 1 (<1%) | DYSKINESIA, % [4]: 1 (<1%) | EXTRAPYRAMIDAL DISORDER, % [4]: 1% | HEADACHE, % [4]: 12% | HYPOKINESIA, % [4]: 1 (<1%) | Hypoaesthesia, % [4]: 1 (<1%)) | MUSCULOSKELETAL STIFFNESS, % [4]: 1 (<1%) | NECK PAIN, % [4]: 1% | NERVOUS SYSTEM DISORDERS, % [4]: 37% | PAIN IN EXTREMITY, % [4]: 2% | PARAESTHESIA, % [4]: 1 (<1%) | RESTLESS LEGS SYNDROME, % [4]: 1 (<1%) | SEDATION, % [4]: 8% | SOMNOLENCE, % [4]: 9% | SPEECH DISORDER, % [4]: 1 (<1%) | TREMOR, % [4]: 3% | Change from Baseline in PANSS Positive Symptom Subscale Score, Mean (SD) ([5]; Week 1): −3.3 (3.6) | Change from Baseline in PANSS Positive Symptom Subscale Score, Median ([5]; Week 1): −3 | Change from Baseline in PANSS Positive Symptom Subscale Score, Mean (SD) ([5]; Week 2): −5.3 (4.7) | Change from Baseline in PANSS Positive Symptom Subscale Score, Median ([5]; Week 2): −5 | Change from Baseline in PANSS Positive Symptom Subscale Score, Mean (SD) ([5]; Week 3): −6.3 (5.3) | Change from Baseline in PANSS Positive Symptom Subscale Score, Median ([5]; Week 3): −6 | Change from Baseline in PANSS Positive Symptom Subscale Score, Mean (SD) ([5]; Week 4): −7.0 (5.6) | Change from Baseline in PANSS Positive Symptom Subscale Score, Median ([5]; Week 4): −7 | Change from Baseline in PANSS Positive Symptom Subscale Score, Mean (SD) ([5]; Week 6/Endpoint): −7.2 (6.6) | Change from Baseline in PANSS Positive Symptom Subscale Score, Median ([5]; Week 6/Endpoint): −7
